Literature values in patent US20250009670A1, “Stable Solid Oral Formulation Of Tafamidis Or Pharmaceutically Acceptable Salt Thereof” (Navinta, LLC, priority 2023, published 2025).

aqueous solubility: low aqueous solubility
Structure (SMILES): O=C(O)c1ccc2nc(-c3cc(Cl)cc(Cl)c3)oc2c1 [Tafamidis, 2-(3,5-dichlorophenyl)-1,3-benzoxazole-6-carboxylic acid]
